{"source": "paper PMC10433220", "about": "“Oil palm kernel globulin antihypertensive peptides: isolation and characterization, ACE inhibition mechanisms, zinc-chelating activity, security and stability” (Frontiers in Pharmacology, 2023)", "key": {"[1]": {"assay": "Zinc solubility of peptide-Zn complexes during simulated gastrointestinal digestion", "format": "in vitro ADME", "details": "simulated intestinal digestion, from 120 to 240 min; p < 0.05", "protocol": "Simultaneously, 5 mg of the DOPKGH peptide-Zn complexes was mixed with 50 mL of simulated gastric digested mucus (pH 2.00 ± 0.10) ([Sun et al., 2021]). After shaking at 37°C and 135 rpm for 90 min, Na2HPO4 (0.5 mol/L) was added and the mixture was quickly stirred until the pH of the digest increased to 6.80 ± 0.10. […] The stability of DOPKGH peptide-Zn complexes was expressed as the residual zinc concentration after digestion and as a percentage of the zinc concentration before digestion."}, "ACE [2]": {"biological_target": "T1, ACE (Oryctolagus cuniculus, UniProt P12822)", "T1 construct": "purchased Sigma (St. Louis, MO, United States)", "T1 sequence (P12822 34-1310)": "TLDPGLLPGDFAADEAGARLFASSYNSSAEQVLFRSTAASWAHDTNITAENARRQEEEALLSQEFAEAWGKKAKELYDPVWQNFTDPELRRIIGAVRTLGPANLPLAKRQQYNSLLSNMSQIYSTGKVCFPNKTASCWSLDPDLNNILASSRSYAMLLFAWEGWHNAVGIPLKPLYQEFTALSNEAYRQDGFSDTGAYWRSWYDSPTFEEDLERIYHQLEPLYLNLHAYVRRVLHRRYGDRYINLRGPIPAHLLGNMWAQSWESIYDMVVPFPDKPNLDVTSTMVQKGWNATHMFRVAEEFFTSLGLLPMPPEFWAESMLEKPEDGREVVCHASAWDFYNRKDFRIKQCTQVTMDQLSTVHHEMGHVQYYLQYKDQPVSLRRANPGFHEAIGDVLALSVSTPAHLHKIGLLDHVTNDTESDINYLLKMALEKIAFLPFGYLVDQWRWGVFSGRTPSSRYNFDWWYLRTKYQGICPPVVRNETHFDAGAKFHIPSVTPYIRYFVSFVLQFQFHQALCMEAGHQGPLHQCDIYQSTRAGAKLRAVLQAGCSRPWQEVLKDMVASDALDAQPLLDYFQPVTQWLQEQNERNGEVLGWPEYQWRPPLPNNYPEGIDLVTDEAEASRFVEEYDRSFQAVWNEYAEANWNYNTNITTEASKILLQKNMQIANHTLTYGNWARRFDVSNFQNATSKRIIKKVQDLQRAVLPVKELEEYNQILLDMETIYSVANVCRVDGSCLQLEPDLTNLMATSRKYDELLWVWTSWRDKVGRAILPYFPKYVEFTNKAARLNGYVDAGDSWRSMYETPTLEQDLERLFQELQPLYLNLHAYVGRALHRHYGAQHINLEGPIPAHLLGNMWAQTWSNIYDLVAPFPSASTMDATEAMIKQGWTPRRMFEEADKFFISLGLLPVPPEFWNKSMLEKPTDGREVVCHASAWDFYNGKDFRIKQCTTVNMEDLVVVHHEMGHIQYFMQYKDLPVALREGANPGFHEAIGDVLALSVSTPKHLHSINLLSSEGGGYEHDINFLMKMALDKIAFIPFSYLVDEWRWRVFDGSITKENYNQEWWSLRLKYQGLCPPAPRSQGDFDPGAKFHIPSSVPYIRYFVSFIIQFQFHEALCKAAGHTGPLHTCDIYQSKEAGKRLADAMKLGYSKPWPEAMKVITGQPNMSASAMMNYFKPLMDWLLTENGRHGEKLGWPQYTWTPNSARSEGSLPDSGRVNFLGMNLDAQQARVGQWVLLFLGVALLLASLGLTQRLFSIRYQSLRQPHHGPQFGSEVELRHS", "assay": "ACE inhibitory activity (HHL substrate, hippuric acid absorbance at 228 nm)", "format": "biochemical", "details": "synthesized peptide, untreated; ACE 25 mU, HHL 8.3 mmol/L, 37°C, 60 min, absorbance 228 nm; from regression y = 10.985 ln(x) ‒ 0.8859, R2 = 0.9458; read-out: ACE inhibition capacity (IC50)", "protocol": "(§1) ACE inhibitory activity was determined using the procedure described by [Zaharuddin et al. (2022)]. Briefly, ACE (25 mU) was pre-incubated at 37°C for 10 min. Then ACE (75 µL), 225 µL of HHL (8.3 mmol/L), and the peptide solution (75 µL) were mixed and stirred at 75 rpm and 37°C for 60 min. The reaction was stopped by adding 375 µL of HCl (1 mol/L). Afterward 2.1 mL of ethyl acetate was added to extract the hippuric acid produced. The mixture was centrifuged at 14,000 g for 150 s. Subsequently, 1 mL of the upper solution (ethyl acetate extraction) was transferred to a glass test tube and heated at 120°C for 32 min. The tube was cooled to 25°C, deionized water (1 mL) was added, and the absorbance was measured at 228 nm. The control group was subjected to the same procedure, but without samples. The ACE inhibition ability of the samples was defined as the percentage of the difference in absorbance at 228 nm between the sample and control as compared to the absorbance at 228 nm of the control. The concentration of peptides required to inhibit half of the ACE activity was defined as the IC50."}, "ACE [3]": {"biological_target": "T1, ACE", "assay": "Stability of ACE inhibitory activity under simulated gastrointestinal hydrolysis", "format": "in vitro ADME", "protocol": "as §1\nThe simulation intestinal digest mucus (pH 6.80 ± 0.10) was composited of 6 g bile salt, 0.07 g pancreatin, 12.5 g NaHCO3, and 200 mL ultrapure water. […] The ACE inhibitory activity of the DOPKGH peptide was determined using untreated DOPKGH peptides for comparison."}, "ACE [4]": {"biological_target": "T1, ACE", "details": "Val residue at the N-terminal; peptide from King Bolete mushrooms; ref Kaprasob et al., 2022; cited from earlier work", "from_the_text": "Moreover, Lys or Arg residues in C-terminal tripeptide are instrumental in the ACE-inhibitory ability of peptides ([Urbizo-Reyes et al., 2022])."}, "ACE [5]": {"biological_target": "T1, ACE", "set-up": "method as in 2 sources, one per row (each row's own in cited_ref): ref Wang et al., 2021 ||| ref Wei et al., 2022", "details": "cited from earlier work"}, "[6]": {"assay": "Zn-chelating ability (4-(2-Pyridinazo)-resorcinol method)", "format": "physicochemical", "details": "350 μg sample, zinc sulfate 0.25 mmol/L, DTT, HEPES-KOH buffer, 37°C, 12 min, PAR method, absorbance 500 nm; mean ± SD, at least three repeats", "protocol": "DOPKGH peptides (350 μg), 0.5 mL zinc sulfate solution (0.25 mmol/L), 0.5 mL DTT (8 mmol/L), 1 mL HEPES-KOH buffer (100 μmol/L), and 8 mL dH2O were mixed thoroughly ([Li et al., 2023]). After stirring at 175 r/min and 37°C for 12 min, the zinc concentration of the reaction solution was measured using the 4-(2-Pyridinazo)-resorcinol method ([Udechukwu et al., 2018]). The standard regression curve of the zinc concentration (x, μg/mL) with absorbance at 500 nm (y) was y = 0.0901n(x) + 0.1012, and R^2 = 0.9802 ([Li et al., 2023]). The zinc chelation rate was defined as the reduction of zinc ions in the reaction solution per unit mass of sample (mg/g).\nAmino acid sequence identification was conducted using a Q Exactive hybrid quadrupole orbitrap mass spectrometer (Thermo Fisher, Bremen, Germany) coupled with Peak-Studio-7.5-De-Novo™ software (Bioinformatics Solutions, Inc., Waterloo, Canada) according to the method described by [Li et al. (2022)]. The DOPKGH sequences were verified by matching with the sequences of Elaeis guineensis recorded in the Biotechnology Information Database (Bethesda, MD, United States). The Zn-chelating ability of the obtained sequences was measured using the 4-(2-Pyridinazo)-resorcinol method ([Udechukwu et al., 2018]). […] In addition, the physicochemical characteristics of the screened DOPKGH sequences were analyzed using the AHTPDB database."}}, "note": "pIC50: −log10 of the molar value. Where two headings read alike, the source gives them in different places. Where no end group is shown, it is not given here.", "data": [{"molecule": "O=C([O-])[C@H](O)[C@@H](O)[C@H](O)[C@H](O)CO.O=C([O-])[C@H](O)[C@@H](O)[C@H](O)[C@H](O)CO.[Zn+2]", "note": "[zinc gluconate, Zinc gluconate]", "values": [{"measurement": "Zinc solubility compared with zinc sulfate", "setting": "[1]", "value": "higher zinc solubility than that of zinc sulfate"}]}, {"molecule": "EVPQAYIP", "values": [{"measurement": "pIC50", "setting": "ACE [2]", "value": 3.99}, {"measurement": "ACE-inhibitory activity retained after gastrointestinal digestion", "setting": "ACE [3]; simulated gastric (pepsin, pH 2.0, 80 min) then intestinal (pancreatin, pH 6.8, 150 min) digestion, 37°C, versus untreated peptide", "value": 71.23, "unit": "%"}, {"measurement": "pIC50", "setting": "ACE [3]; simulated gastric digest (pepsin 0.35 mg/mL, pH 2.0) 37°C 80 min, then intestinal digest (pancreatin, bile salt, pH 6.8) 37°C 150 min, regression y = 13.536ln(x) ‒ 17.297, R2 = 0.9528, read-out: IC50 against ACE after gastrointestinal digestion", "value": 3.84}]}, {"molecule": "VSWNVLQEP [literature peptide identified in King Bolete mushrooms]", "values": [{"measurement": "Binding energy with ACE", "setting": "ACE [4]", "value": -9.1, "unit": "kcal/mol"}]}, {"molecule": "PHQPLPP", "values": [{"measurement": "ACE inhibition IC50", "setting": "ACE [5]; peptide identified in rubing cheese, ref Wei et al., 2022", "value": 821, "unit": "µg/mL"}]}, {"molecule": "QRLERCK [Gln-Arg-Leu-Asp-Arg-Cys-Lys, oligopeptide identified in defatted oil palm kernel globulin hydrolysates]", "values": [{"measurement": "Zinc chelating capacity", "setting": "[6]", "value": "17.30 ± 1.46^g mg/g"}]}, {"molecule": "GNPLSP", "values": [{"measurement": "pIC50", "setting": "ACE [5]; peptide derived from Arthrospira platensis, ref Wang et al., 2021, read-out: ACE inhibition IC50", "value": 3.58}]}]}
